# According to patent US20170095565A1, “CHEMICALLY MODIFIED SMALL MOLECULES” (Nektar Therapeutics, priority 2003, published 2017):
# Structures can show the parent of a compound that is named as a salt. Where two headings read alike, the source gives them in different places.
# Experiments:
# [1] = PEG-CIPRO absorption from lung after IT administration; conditions: Cipro and PEG-Cipro
# Text: In vivo absorption data was collected through rat studies, in which, following IT administration to rats, whole lungs were excised and analyzed for test article concentration.
# [2] = Lung residence after intratracheal administration (BAL, BAL cells, residual lung, serum); assay type: in vivo, rats; conditions: for half-life: rat, other: intratracheal (IT), 30 μg
# Procedure: To determine the effect of PEG length on residence time in the lung, a series of in vivo experiments was performed in which each PEG-FITC species was administered intratracheally (IT) to rats, and the amount remaining in the lung was determined at progressive time points. For each species, 30 μg PEG-FITC, prepared in PBS/0.5% BSA, was administered IT to rats (300 μL of a 100 μg/mL solution). […] Following the lavage, lungs were excised, and samples of serum were extracted. The resulting lavage solution was then centrifuged to pellet the cellular fraction (BAL cells) and separate it from the BAL supernatant.
# Samples from BAL, BAL cells and serum were read directly in microtiter plates with no prior treatment. To quantitate PEG-FITC remaining in the residual lung material, however, the excised lungs were homogenized and PEG-FITC was extracted in ethanol.
# For all samples, quantitation was performed by interpolation from a standard curve generated from known concentrations of the relevant molecule prepared in the correlating matrix. Thus for samples of BAL and BAL cells, the standard samples were prepared in 0.9% NaCl, for serum samples, the standards were prepared in commercially obtained rat serum, and for lung extracts, the standard samples were prepared in PBS: Ethanol (1:3).
# For BAL studies, the total amount remaining was calculated for each animal from the product of the concentration and the BAL volume recorded. For BAL cells, the pellet was resuspended in 1 mL; the amount present was calculated accordingly. For residual lung tissue, the amount present in both lungs (μg/lung) was calculated from the product of the concentration and the homogenate volume. Note that although the nominal dose delivered in each experiment was 30 μg, the dosing solution was analyzed from the same standard curve for each experiment and the actual delivered dose was calculated. The data shown throughout this specification are thus corrected for each PEG-FITC species respectively and are represented as percentage dose administered. The doses delivered in each experiment are represented in Table VIII below.
# [3] = Cell-based permeability in Calu-3 cells; assay type: in vitro ADME; conditions: human
# Procedure: In vitro cell-based experiments (in a Calu-3 assay) were performed for PEG-FITC conjugates. The Calu-3 cells were cultured with an apical air-interface to mimic the in vivo epithelium.
SMILES,Elimination from lung (rat IT) [1] [h⁻¹],Portion of dose associated with BAL cells ([2]; 10 min),Dose recovered in BAL ([2]; 10 min following IT administration),Serum peak as proportion of administered dose ([2]; 10 min post dose),"Peak amount in serum ([2]; 10 min post dose, based on rat serum volume of approximately 8 mL)",Dose recovered in combined lung-derived fractions ([2]; 10 min post-dose),"Elimination from lung (rat IT) ([2]; fluorescein, PEG and PEG-FITC) [h⁻¹]","BAL k-el ([2]; rat IT, BAL supernatant)","BAL t1/2-el ([2]; rat IT, elimination half-life from BAL) [min]","half-life ([2]; bronchoalveolar lavage (BAL) supernatant, rat IT, elimination half-life from BAL, read-out: BAL t1/2-el) [min]","half-life ([2]; combined lung compartments, rat IT, combined lung compartments, read-out: Lung t1/2-el (converted)) [min]",BAL t90 ([2]; time at which 90% of the dose would be eliminated) [h],BAL t99 ([2]; time at which 99% of the dose would be eliminated) [h],Papp [3] [×10⁻⁶ cm/s]
"O=C(O)c1cn(C2CC2)c2cc(N3CCNCC3)c(F)cc2c1=O [Cipro HCl, ciprofloxacin]",10.24,–,–,–,–,–,–,–,–,–,–,–,–,–
"O=C1OC2(c3ccc(O)cc3Oc3cc(O)ccc32)c2ccccc21 [Sodium fluorescein, sodium fluorescein]",–,approximately 13%,less than 50%,less than 10%,approximately 2 μg,less than 50%,1.38,1.3253,31.4,< 31.2,30.1,1.74,3.5,0.34
